This is an account of results in US20220017870A1, “METHODS OF IDENTIFYING THERAPEUTIC TARGETS FOR TREATING ANGIOGENESIS” (Advanced Solutions Life Sciences, LLC, priority 2020, published 2022).

For the test, the system named is growing MVs (neovessels). As to the kind of experiment: Effect of DYRK3 inhibition on MV growth in 3D culture. The format is cell-based, human. As to the method:
FIG. 5. Effect of DYRK3 inhibition on MV growth. Phase contrast images of MVs after 9 days of culture, with a single 3-hour exposure of DYRK3 inhibitor after initial neovessel sprouting (day 4). […] Scale=100 μm. Arrows point to neovessels.
For all assays, MVs isolated from human adipose tissue via a limited collagen digestion are embedded (100,000 MV/ml) in a 3 mg/ml collagen gel. This formulation is compatible with a variety of multi-well plates. Whenever possible, assessments are made daily over the course of 1 week, including image acquisition for HCA.
DYRK3 and angiogenesis: To further explore DYRK3 in this model, growing MVs are treated with the small molecule GSK626616, a known DYRK3 inhibitor. Cultures with growing neovessels (in RPMI with B27 and 50 ng/ml VEGF) were treated with 10 μM GSK626616 for 3 hours, and then returned to medium without inhibitor for an additional 6 days.

Where [1] appears, read: 10 μM for 3 hours, then medium without inhibitor for additional 6 days, RPMI with B27 and 50 ng/ml VEGF, qualitative, vs untreated controls.

On to `O=C1NC(=Nc2c(Cl)cccc2Cl)S/C1=C\c1ccc2nccnc2c1` [GSK626616], for which, under setting [1], the “impact on parent MV” value is “did not impact parent MV”, the neovessel growth result is “stopped neovessel growth” and the neovessel regression entry is “may have even caused neovessel regression”. Also, the “neovessels apparent in phase contrast images” value (after 9 days of culture, single 3-hour exposure after initial neovessel sprouting (day 4)) is reported as “Fewer neovessels are apparent”.
